From patent publication US20250161286A1 (AEVIS BIO, INC., priority 2022, published 2025)

Legend:
[1] = test system: Aiolos and Ikaros; assay: Aiolos and Ikaros degradation by immunoblotting in MM.1S cells; type: cell-based, human
Procedure: To this end, the MM.1S cell line was cultured in an RPMI medium (Corning, MD, USA) supplemented with 10% fetal bovine serum (Corning, MD, USA), 100 U/ml of penicillin (Corning, MD, USA), and 100 μg/ml of streptomycin (Corning, MD, USA) at 37° C. in a 5% CO2 incubator. […] The cells were disrupted by adding a RIPA buffer containing a protease inhibitor cocktail (Thermo Fisher Scientific) and centrifuged at 14,000 rpm for 15 minutes at 4° C. to obtain a cell extract. Equal amounts of the cell extract were loaded, and proteins were separated through SDS-PAGE and then transferred to a PVDF membrane. The protein-transferred membrane was blocked using skim milk, incubated with a primary antibody for 3 hours at room temperature, and then incubated with an HRP-conjugated secondary antibody for 1 hour at room temperature. The resulting product was washed with TBS-T three times between steps. Detection was performed using a chemoluminescence reagent (Thermo Fisher Scientific), and confirmed using Chemidoc (iBright CL1500, Invitrogen, CA, USA). Aiolos (#15103), Ikaros (#9034) and GAPDH (#2118S) antibodies used as primary antibodies and a secondary antibody were purchased from Cell Signaling Technology (Danvers, MA, USA).
Additionally, the expression of Aiolos and Ikaros, mediated by 3-MP, was confirmed over time. […]

[2] = test system: iNOS and COX-2; assay: iNOS and COX-2 expression in LPS-stimulated RAW264.7 cells (immunoblotting); type: cell-based, mouse; details: RAW264.7 cells, 3.33, 10 or 30 μM, 60 ng/ml LPS, 24 hours
Procedure: To confirm an oxidative stress suppression effect, the expression levels of iNOS and COX-2 were confirmed.
To this end, the RAW264.7 cell line, which is a mouse macrophage cell line, was purchased from the Korea Cell Line Bank (KCLB, Korea) and used, and cultured in a DMEM medium (Corning, MD, USA) supplemented with 10% fetal bovine serum (Corning, MD, USA), 100 U/ml of penicillin (Corning, MD, USA), and 100 μg/ml of streptomycin (Corning, MD, USA) at 37° C. in a 5% CO2 incubator.
After 1 hour, the cells were stimulated by treatment with 60 ng/ml of LPS, and further cultured for 24 hours. The cells were disrupted by adding a RIPA buffer containing a protease inhibitor cocktail (Thermo Fisher Scientific) and centrifuged at 14,000 rpm for 15 minutes at 4° C. to obtain a cell extract. Equal amounts of the cell extract were loaded, and proteins were separated through SDS-PAGE and then transferred to a PVDF film. The protein-transferred membrane was blocked using skim milk, incubated with a primary antibody for 3 hours at room temperature, and then incubated with an HRP-conjugated secondary antibody for 1 hour at room temperature. The resulting product was washed with TBS-T three times between steps. […]

[3] = Stability of 3-MP in human plasma (UPLC-MS); type: in vitro ADME
Procedure: To plot a standard calibration curve, the stock sample was diluted by half with acetonitrile from 125 to 0.39 μg/mL to prepare standard solutions for a total of 10 samples at different concentrations, and the calibration curve was plotted as shown in FIG. 6A.
For the experiment of verifying stability in plasma, 10 μL of the test drug prepared at a concentration of 100 μg/mL was added to 90 μL of human plasma and mixed for 30 seconds, and then immediately after the addition, the plasma-mixed test drug was incubated for 15, 30, 60, or 120 minutes to prepare samples. Afterward, 400 μL of 100% ethyl acetate was added to each sample and extracted using a vortex mixture for 1 minute. […] Initially, the mobile phase B was increased from 5% to 95% until 9 minutes and analyzed, the mobile phase B was maintained 95% until 12 minutes, and then the mobile phase B was lowered to 5% and equilibrated, and used in the subsequent analysis. the flow rate of the mobile phase was 0.3 mL/min, the sample injection volume was 2 μL, and the mass spectrometer was operated in the ESI-positive mode. The spray voltage was set to 3.5 kV, and the flow rates of the nitrogen sheath gas, auxiliary gas, and sweep gas were analyzed as 50, 10, and 1 (arbitrary units), respectively. […]

Nc1cccc2c1C(=S)N(C1CCC(=O)NC1=O)C2=O (centres unmarked) [3-MP, 3-thiopomalidomide]
expression of Aiolos and Ikaros over time ([1]; 10 μM, 1, 4, 8, 12 or 24 hours): does not reduce the expression of Aiolos and Ikaros
expression of Aiolos and Ikaros ([1]; 0.000128-10 μM, 4 hours): does not reduce the expression of Aiolos and Ikaros
expression of iNOS and COX-2 (protein) [2]: inhibit the expression of iNOS and COX-2
stability in plasma over time ([3]; 0 to 120 minutes): maintained without significant changes
plasma level ([3]; immediately after plasma addition (0 minutes)): 80 µg/mL
